Assays:
Raw 264.7 macrophages [1] = assay: Soluble delivery of DGEA to 2D cultures of M1-stimulated macrophages, iNOS/DAPI immunostaining; format: cell-based, mouse; settings: 2D culture, M1 media (100 ng/mL LPS, 10 ng/mL IFNγ), 5 mM soluble DGEA, 72 hrs; without DGEA 0.5±0.1; p<0.05
Description: To establish interactions between DGEA and M1 macrophages, a 2D study was conducted with soluble delivery of DGEA to the media culture. […] 5 mM DGEA was dissolved in the media to assess the effects of DGEA on macrophage activation (S. Y. Yoo, M. Kobayashi, P. P. Lee, and S. W. Lee, “Early osteogenic differentiation of mouse preosteoblasts induced by collagen-derived DGEA-peptide on nanofibrous phage tissue matrices,” Biomacromolecules, vol. 12, no. 4, pp. 987-996, April 2011). After stimulation, the cells were stained for 4′,6-diamidino-2-phenylindole (DAPI) and iNOS (inset (b) of FIG. 1). The addition of 5 mM DGEA in the media reduced the number of iNOS^+ cells, as represented in insets (b) and (c) in FIG. 1. The iNOS^+ cell count was normalized to the number of DAPI^+ cells for each image chosen to be analyzed. […] Polarized iNOS^+ macrophage cells with soluble DGEA were dramatically lower than iNOS^+ macrophage cells without any presence of DGEA. […] ECM-derived peptides have been investigated in cell function. For example, the interaction between collagen and α2β1 integrin is important for the osteoblastic differentiation of bone marrow cells. […]
(§1) Cells were stimulated with M1 media 24 hrs post-seeding and post-encapsulation. In all studies, the effects of DGEA on the cells were assessed 72 hrs post-stimulation with M1 media by immunocytochemistry (ICC). […]

Raw 264.7 macrophages [2] = assay: Soluble delivery of DGEA to macrophages encapsulated in 3D control PEG hydrogels, iNOS/DAPI immunostaining; format: cell-based, mouse; settings: 3D control hydrogel (3.5 mM PEG-RGDS, 5% PEG-PQ-PEG), 5 mM soluble DGEA in M1 media, 72 hrs; non-significant (p>0.05)
Description: Raw 264.7 macrophages were encapsulated within the hydrogel. These quiescent M0 macrophages were allowed to equilibrate in the incubator for 24 hrs, after which M1 media was added to stimulate them towards the pro-inflammatory phenotype. At this time, 5 mM DGEA was also dissolved into the media and the samples were incubated for another 72 hrs. The samples were then fixed, stained, imaged, and analyzed. The immunofluorescent images represent DAPI stained cells and iNOS stained cells (inset (b) in FIG. 2). The 3D hydrogels were imaged using a Keyence BZ-X800 microscope and the images represent 2D slices of an entire 3D Z-stack. […] The data were statistically non-significant (p>0.05). […]
as §1
Images were quantified based on the number of iNOS^+ cells, normalized to DAPI^+ cells for each condition. Images were analyzed using the “automated cell counting of single color image” feature on ImageJ (NIH) software after a randomized, unbiased selection of images. All images were turned to 8-bit grayscale and threshold to highlight all the cells to be counted. […]

[3] = system: TNFα, IL-6, iNOS gene expression; assay: RT-PCR of pro-inflammatory gene expression (TNFα, IL-6, iNOS); format: cell-based; settings: FIG. 7
Description: The results validate the inflammation inhibiting properties of DGEA by looking at pro-inflammatory gene expressions. The genes assessed include TNFα (a); IL-6 (b); and iNOS (c).

Raw 264.7 macrophages [4] = assay: iNOS and CD206 expression in M0, M1 and M2 raw 264.7 macrophages encapsulated in control and PEG-DGEA hydrogels; format: cell-based, mouse
α2β1 integrin = biological target: T1, α2β1 integrin (Homo sapiens, UniProt P05556+P17301); settings: DGEA-coated plates, Cha et al.; cited from earlier work
T1 construct: Integrin α2β1 appears to play a pivotal role in macrophage polarization by affecting downstream signaling pathways

bone marrow cells = bone marrow cells encapsulated in type I collagen matrix gels, Mizuno et al.; cited from earlier work
platelets = settings: Luzak et al.; cited from earlier work
ovarian carcinoma cells = settings: Fishman et al.; cited from earlier work

T1 sequence (P17301 30-1181): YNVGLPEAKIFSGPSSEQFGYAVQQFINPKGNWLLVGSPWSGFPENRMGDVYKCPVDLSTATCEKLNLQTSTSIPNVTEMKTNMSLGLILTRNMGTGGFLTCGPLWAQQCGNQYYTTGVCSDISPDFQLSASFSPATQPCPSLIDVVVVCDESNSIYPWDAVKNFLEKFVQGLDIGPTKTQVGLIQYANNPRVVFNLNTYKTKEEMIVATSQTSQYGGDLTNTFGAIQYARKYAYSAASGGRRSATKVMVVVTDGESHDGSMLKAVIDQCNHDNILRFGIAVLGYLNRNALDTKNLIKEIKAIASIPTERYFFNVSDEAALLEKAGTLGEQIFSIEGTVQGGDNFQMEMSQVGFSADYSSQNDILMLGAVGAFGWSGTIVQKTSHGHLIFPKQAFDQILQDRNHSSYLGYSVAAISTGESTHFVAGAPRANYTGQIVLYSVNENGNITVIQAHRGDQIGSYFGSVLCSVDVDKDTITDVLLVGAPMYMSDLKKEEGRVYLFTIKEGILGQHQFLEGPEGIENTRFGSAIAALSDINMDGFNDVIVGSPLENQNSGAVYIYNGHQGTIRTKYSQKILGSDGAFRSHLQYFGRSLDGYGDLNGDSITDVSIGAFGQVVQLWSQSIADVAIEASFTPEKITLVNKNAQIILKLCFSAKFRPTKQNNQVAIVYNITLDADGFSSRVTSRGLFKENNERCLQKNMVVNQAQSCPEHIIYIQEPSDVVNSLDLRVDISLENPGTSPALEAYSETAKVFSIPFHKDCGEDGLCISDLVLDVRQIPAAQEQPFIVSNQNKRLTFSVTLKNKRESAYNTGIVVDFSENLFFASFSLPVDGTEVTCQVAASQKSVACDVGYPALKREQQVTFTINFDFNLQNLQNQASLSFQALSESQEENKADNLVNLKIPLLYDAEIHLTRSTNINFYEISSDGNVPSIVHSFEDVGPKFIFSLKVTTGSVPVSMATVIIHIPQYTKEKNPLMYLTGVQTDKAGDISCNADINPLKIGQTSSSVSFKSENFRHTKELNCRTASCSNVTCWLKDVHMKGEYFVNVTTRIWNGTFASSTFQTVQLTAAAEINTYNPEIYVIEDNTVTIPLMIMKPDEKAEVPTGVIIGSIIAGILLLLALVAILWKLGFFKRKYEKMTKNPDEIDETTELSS
T1 sequence (P05556 21-798): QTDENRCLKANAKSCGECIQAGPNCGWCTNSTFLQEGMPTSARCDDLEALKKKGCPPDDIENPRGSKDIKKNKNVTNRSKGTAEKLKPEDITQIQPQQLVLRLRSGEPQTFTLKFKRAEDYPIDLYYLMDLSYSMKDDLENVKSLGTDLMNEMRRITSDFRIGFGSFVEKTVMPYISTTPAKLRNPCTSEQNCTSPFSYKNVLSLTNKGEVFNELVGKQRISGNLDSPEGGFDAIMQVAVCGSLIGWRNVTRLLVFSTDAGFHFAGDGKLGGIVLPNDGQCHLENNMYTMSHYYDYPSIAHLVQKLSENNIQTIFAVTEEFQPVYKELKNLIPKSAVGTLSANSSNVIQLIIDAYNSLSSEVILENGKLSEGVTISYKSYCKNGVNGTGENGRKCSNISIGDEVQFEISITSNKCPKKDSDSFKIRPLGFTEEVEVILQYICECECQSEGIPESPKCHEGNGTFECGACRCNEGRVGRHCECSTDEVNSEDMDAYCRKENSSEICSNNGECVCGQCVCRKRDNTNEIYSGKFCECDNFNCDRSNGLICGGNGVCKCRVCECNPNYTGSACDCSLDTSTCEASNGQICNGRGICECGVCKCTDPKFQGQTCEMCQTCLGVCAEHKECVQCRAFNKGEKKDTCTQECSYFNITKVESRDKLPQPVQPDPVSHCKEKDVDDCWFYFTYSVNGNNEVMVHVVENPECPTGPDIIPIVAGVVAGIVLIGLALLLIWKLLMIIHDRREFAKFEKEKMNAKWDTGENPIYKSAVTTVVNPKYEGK

For “Asp-Gly-Glu-Ala (DGEA; DGEA peptide sequence)”, the “iNOS+ M1 activated macrophages as fraction of the total DAPI+ cells” value (Raw 264.7 macrophages [1]) was 0.1±0.1, the “number of iNOS+ cells (normalized to DAPI+ cells)” value (Raw 264.7 macrophages [2]) was “lower than the number of iNOS^+ cells without any DGEA” and the “expression of pro-inflammatory mediators (TNFα, IL-6, iNOS) by RT-PCR” value [3] was “significantly reduces expression”. The iNOS expression (Raw 264.7 macrophages [4]; M0, M1 and M2 macrophages encapsulated in PEG-DGEA vs control hydrogels, FIG. 8) was “reduced iNOS expression”, the CD206 expression (Raw 264.7 macrophages [4]; M1 or M2 macrophage phenotypes in PEG-DGEA hydrogels, FIG. 9) was “did not appear to have any significant effects” and the “expression of CD206 (M2 marker)” value (α2β1 integrin) was “higher expression of CD206”. For the same substance, the “expression of osteoblastic phenotype” value (bone marrow cells) was “inhibited the expression of osteoblastic phenotype”, the platelet adhesion (platelets) was “significant inhibition in platelet adhesion” and the “adhesion of ovarian carcinoma cells to collagen” value (ovarian carcinoma cells) was “block adhesion”.

From patent publication US20240335500A1, “CONTROLLING PRO-INFLAMMATORY MACROPHAGE PHENOTYPE THROUGH BIOFUNCTIONAL HYDROGEL DESIGN” (UNIVERSITY OF FLORIDA RESEARCH FOUNDATION, INCORPORATED, priority 2021, published 2024)
